Laboratory results taken from patent US8741844B2, “Use of mutated antithrombins for treating or preventing coagulation disorders” (Universite Paris-Sud XI, priority 2007, dated 2014).
Read-outs that look alike come from different tables or passages of the source.

Assays:
[1] = Heparin affinity column elution with NaCl gradient; type: binding
Method: Conditioned media are thawed, pooled, salt concentration adjusted to 0.4 M NaCl and then applied on an heparin immobilized column (Hitrap Heparin 5 ml or Heparin-sepharose CL6B 50 ml, GE Biological) equilibrated with 10 mM Tris, or with 20 mM phosphate buffer, 0.4 M NaCl and 0.1 mM EDTA, pH 7.4. The bound proteins are eluted in the same buffer with a gradient from 0.4 M to 2 M NaCl. The fractions eluted from 0.8 M NaCl and more contained only wild type antithrombin or mutated antithrombins with high heparin affinity. […] The collected fractions are pooled and the salt concentration is decreased either by over night dialysis against 10 mM Tris, or 20 mM phosphate, and 0.1 M NaCl, pH 7.4 at 4° C. or applied on an HiPrep 26/10 desalting column equilibrated with 10 mM Tris, or 20 mM phosphate, and 0.1 M NaCl, pH 7.4. The antithrombin is then concentrated by ion exchange chromatography using a “Resource Q” 1 ml column (GE, Biological) equilibrated with 10 mM Tris, or 20 mM phosphate, and 0.1 M NaCl, pH 7.4 and eluted in the same buffer with a NaCl gradient from […] to 0.5 M or 20 mM to 0.5 M. The antithrombin concentration in each elution fraction is estimated by absorbance at 280 nm with an absorption coefficient ε=0.65 g^−1·l·cm^−1 and the integrity of purified wild type antithrombin or mutated antithrombins is tested by western blotting using the same couple of antibodies as described before, and electrophoresis on 10% acrylamide/bisacrylamide gel in native and denaturing conditions followed by coomassie brilliant blue R-250 staining (FIG. 4). Then, the antithrombin preparation is aliquoted and stored at −80° C. before use for functional assay. The same procedure is used to purify plasma antithrombin (used as internal reference) from human plasma.

[2] = Fondaparinux overdose and pharmacokinetics in mice; type: in vivo; conditions: mouse
Method: 1—Determination of the Doses of Fondaparinux Inducing an Overdose in Mice Published data concerning fondaparinux pharmacokinetics in rats (Herbert J 4197), or experimental determination of fondaparinux pharmacokinetics in mice are used to develop the model.
To induce an overdose, a 3 fold doses (300 nmol/kg, or 0.52 mg/kg) is tested. At this dose, the fondaparinux plasma concentration is about 3.5 to 4 nmol/ml (or 6 to 7 mg/L). An anti-Xa activity is determined to ensure that an overdose is obtained.
Anti FXa activity measurements is performed as previously described using a Stachrom Heparin® kit on a STA (Stago, France) or a Rotachrom Heparin® kit with procedure adapted for measurement in microplate reader (Dynatech MR 5000). A calibration curve with pentasaccharide is performed, allowing the expression of the results in nmol/ml (or in mg/L) of plasma.
In mouse, an overdose of fondaparinux is observed at 300 nmol/kg (or 0.52 mg/kg) but maximal concentration in plasma is observed less than 15 min after sub-cutaneous injection.

[3] = rats, cited from earlier work
[4] = patients, curative pentasaccharide treatment; cited from earlier work

Row | Molecule | elution from heparin affinity column compared with wild type antithrombin [1] | dose at which an overdose is observed [2] [mg/kg] | Tmax ([3]; intra-venous injection of 100 nmol/kg (or 0.17 mg/kg)) [min] | Tmax ([3]; subcutaneous injection of 100 nmol/kg (or 0.17 mg/kg)) [min] | minimal equilibrium concentration in plasma [4] [mg/L] | optimal equilibrium concentration in plasma [4] [mg/L]
1 | AT-N135Q: human antithrombin with substitution of the amino acid at position 135 by Glutamine | higher ionic strength than wild type antithrombin | – | – | – | – | –
2 | CO[C@H]1O[C@H](COS(=O)(=O)O)[C@@H](O[C@@H]2O[C@@H](C(=O)O)[C@@H](O[C@H]3O[C@H](COS(=O)(=O)O)[C@@H](O[C@@H]4O[C@H](C(=O)O)[C@@H](O[C@H]5O[C@H](COS(=O)(=O)O)[C@@H](O)[C@H](O)[C@H]5NS(=O)(=O)O)[C@H](O)[C@H]4O)[C@H](OS(=O)(=O)O)[C@H]3NS(=O)(=O)O)[C@H](O)[C@H]2OS(=O)(=O)O)[C@H](O)[C@H]1NS(=O)(=O)O [fondaparinux] | – | 0.52 | 5 | 30 | 0.46 to 0.62 | 1.20 to 1.26
